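1) Cells in 96-well plates. 2) Compound, 48 h, 5 concentrations. 3) Linear interpolation between surrounding doses. 4) Unreached endpoint = highest concentration. GI50 marks 50% less growth. Definition used: TGI = concentration required for complete inhibition of growth.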
How the values were obtained:
Assay in all cases: DTP human tumour cell line panel, 48 h
[1] = tested on: T-47D breast
[2] = tested on: KM12 colon
[3] = tested on: NCI-H460 lung
[4] = tested on: HT29 colon
[5] = tested on: SF-539 CNS
[6] = tested on: HS 578T breast
[7] = tested on: SF-295 CNS
[8] = tested on: MOLT-4 leukemia
[9] = tested on: SK-MEL-5 melanoma
[10] = tested on: MDA-MB-435
[11] = tested on: MCF7 breast
[12] = tested on: A498 renal
[13] = tested on: BT-549 breast
[14] = tested on: MDA-MB-231 breast
[15] = tested on: TK-10 renal
[16] = tested on: OVCAR-8 ovarian
[17] = tested on: HCT-15 colon
[18] = tested on: OVCAR-4 ovarian
[19] = tested on: HOP-92 NSCLC
[20] = tested on: RPMI-8226 leukemia
[21] = tested on: M14 melanoma
[22] = tested on: OVCAR-5 ovarian
[23] = tested on: CCRF-CEM leukemia
[24] = tested on: MALME-3M melanoma
[25] = tested on: HOP-62 NSCLC
[26] = tested on: SF-268 CNS
[27] = tested on: COLO 205 colon
[28] = tested on: IGROV1 ovarian
[29] = tested on: HCT-116 colon
[30] = tested on: UACC-62 melanoma
[31] = tested on: UO-31 renal
[32] = tested on: DU-145 prostate
[33] = tested on: PC-3 prostate
[34] = tested on: ACHN renal
[35] = tested on: NCI/ADR-RES ovarian
[36] = tested on: LOX IMVI melanoma
[37] = tested on: CAKI-1 renal
[38] = tested on: SK-OV-3 ovarian
[39] = tested on: SNB-75 CNS
[40] = tested on: EKVX NSCLC
[41] = tested on: A549 NSCLC
[42] = tested on: SNB-19 CNS
[43] = tested on: 786-0 renal
[44] = tested on: OVCAR-3 ovarian
[45] = tested on: HCC-2998 colon
[46] = tested on: UACC-257 melanoma
[47] = tested on: SK-MEL-2 melanoma
[48] = tested on: RXF 393 renal
[49] = tested on: SN12C renal
[50] = tested on: SK-MEL-28 melanoma
[51] = tested on: SR leukemia
[52] = tested on: NCI-H226 lung
[53] = tested on: K-562 leukemia
[54] = tested on: U251 CNS
[55] = tested on: NCI-H522 lung
[56] = tested on: SW-620 colon
[57] = tested on: NCI-H23 lung
[58] = tested on: HL-60(TB) leukemia

SMILES: NC(=S)N/N=C1\c2cc(Cl)ccc2-c2c1cc(Cl)cc2[N+](=O)[O-]
- GI50 [1]: 2070 nM
- TGI [1]: 7.65 µM
- GI50 [2]: 5.14 µM
- TGI [2]: 88.8 µM
- GI50 [3]: 3.27 µM
- TGI [3]: 20.7 µM
- GI50 [4]: 10 µM
- TGI [4]: 61.2 µM
- GI50 [5]: 6.16 µM
- TGI [5]: 88.2 µM
- GI50 [6]: 18.8 µM
- TGI [6]: > 100 µM
- GI50 [7]: 3.57 µM
- TGI [7]: 73.7 µM
- GI50 [8]: 3.21 µM
- TGI [8]: 23.6 µM
- GI50 [9]: 2770 nM
- TGI [9]: 9.28 µM
- GI50 [10]: 7.28 µM
- TGI [10]: > 100 µM
- GI50 [11]: 1980 nM
- TGI [11]: 16.8 µM
- GI50 [12]: 1380 nM
- TGI [12]: 8.57 µM
- GI50 [13]: 3.41 µM
- TGI [13]: 36.7 µM
- GI50 [14]: 3.85 µM
- TGI [14]: 34.9 µM
- GI50 [15]: 20.5 µM
- TGI [15]: > 100 µM
- GI50 [16]: 4.62 µM
- TGI [16]: > 100 µM
- GI50 [17]: 4.33 µM
- TGI [17]: > 100 µM
- GI50 [18]: 1920 nM
- TGI [18]: 8.35 µM
- GI50 [19]: 2220 nM
- TGI [19]: 13.1 µM
- GI50 [20]: 3.44 µM
- TGI [20]: 20.5 µM
- GI50 [21]: 3.27 µM
- TGI [21]: > 100 µM
- GI50 [22]: 11 µM
- TGI [22]: > 100 µM
- GI50 [23]: 3.43 µM
- TGI [23]: > 100 µM
- GI50 [24]: 9.26 µM
- TGI [24]: 87.4 µM
- GI50 [25]: 7.12 µM
- TGI [25]: 74.7 µM
- GI50 [26]: 9.79 µM
- TGI [26]: > 100 µM
- GI50 [27]: 3.84 µM
- TGI [27]: 22.2 µM
- GI50 [28]: 5.68 µM
- TGI [28]: > 100 µM
- GI50 [29]: 2890 nM
- TGI [29]: 27.4 µM
- GI50 [30]: 3.16 µM
- TGI [30]: > 100 µM
- GI50 [31]: 4.81 µM
- TGI [31]: 70.2 µM
- GI50 [32]: 10.8 µM
- TGI [32]: > 100 µM
- GI50 [33]: 3.21 µM
- TGI [33]: > 100 µM
- GI50 [34]: 4.81 µM
- TGI [34]: > 100 µM
- GI50 [35]: 4.76 µM
- TGI [35]: > 100 µM
- GI50 [36]: 9.35 µM
- TGI [36]: > 100 µM
- GI50 [37]: 7.21 µM
- TGI [37]: > 100 µM
- GI50 [38]: 9.4 µM
- TGI [38]: > 100 µM
- GI50 [39]: 2840 nM
- TGI [39]: 28.3 µM
- GI50 [40]: 4.65 µM
- TGI [40]: 95.6 µM
- GI50 [41]: 4.05 µM
- TGI [41]: > 100 µM
- GI50 [42]: 4.24 µM
- TGI [42]: > 100 µM
- GI50 [43]: 5.41 µM
- TGI [43]: 91.3 µM
- GI50 [44]: 4.66 µM
- TGI [44]: 40.8 µM
- GI50 [45]: 12.1 µM
- TGI [45]: > 100 µM
- GI50 [46]: 6.56 µM
- TGI [46]: > 100 µM
- GI50 [47]: 7.96 µM
- TGI [47]: 89.8 µM
- GI50 [48]: 10.4 µM
- TGI [48]: 89.4 µM
- GI50 [49]: 4.58 µM
- TGI [49]: > 100 µM
- GI50 [50]: 3.83 µM
- TGI [50]: > 100 µM
- GI50 [51]: 4.87 µM
- TGI [51]: > 100 µM
- GI50 [52]: 5.25 µM
- TGI [52]: > 100 µM
- GI50 [53]: 4.76 µM
- TGI [53]: > 100 µM
- GI50 [54]: 2990 nM
- TGI [54]: 14.9 µM
- GI50 [55]: 4.11 µM
- TGI [55]: 48.6 µM
- GI50 [56]: 10.7 µM
- TGI [56]: > 100 µM
- GI50 [57]: 3.86 µM
- TGI [57]: > 100 µM
- GI50 [58]: 6.15 µM
- TGI [58]: 51.9 µM

— PubChem BioAssay (NCI)
